# Measured values published in US20060223996A1, “IL-12 modulatory compounds” (Synta Pharmaceuticals Corp., priority 2004, published 2006).
# Test system: IL-12
# Assay: Human in vitro assay: inhibition of IL-12 production in IFNγ/LPS- or IFNγ/SAC-stimulated human PBMC or THP-1 cells (ELISA)
# Format: cell-based
# Settings: read-out: IC50 Range (representative in vitro IC50 data)
# Outline: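 Sandwich ELISA for IL-12 (p70, p40) on supernatants collected 18 h after stimulation gave IC50 values; MTS monitored viability. THP-1 cells: IFNγ 100 U/mL priming 22 h, SAC 0.025%. PBMC: IFNγ 30 U/mL for 22 h plus LPS 1 μg/mL, or IFNγ 100 U/mL plus SAC 0.01%. Final DMSO 0.25%.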
row,SMILES,IC50
1,"COCCN(C)c1cc(N2CCOCC2)cc(C(=O)Nc2cccc(N(C)C)c2)n1 [Compound 157, 6-[(2-Methoxy-ethyl)-methyl-amino]-4-morpholin-4-yl-pyridine-2-carboxylic acid (3-dimethylamino-phenyl)-amide]",≥ 1000 nM
2,"COCCN(C)c1cc(C(=O)NCCN(C)C)nc(N2CCOCC2)n1 [Compound 162, 6-[(2-Methoxy-ethyl)-methyl-amino]-2-morpholin-4-yl-pyrimidine-4-carboxylic acid (2-dimethylamino-ethyl)-amide]",≥ 1000 nM
3,"O=C(Nc1nnc(C2CC2)s1)c1cc(OCCN2CCOCC2)nc(N2CCOCC2)n1 [Compound 163, 2-Morpholin-4-yl-6-(2-morpholin-4-yl-ethoxy)-pyrimidine-4-carboxylic acid (5-cyclopropyl-[1,3,4]thiadiazol-2-yl)-amide]",≥ 1000 nM
4,"CCN(CC)Cc1cc(NC(=O)c2cc(N(C)CCOC)nc(N3CCOCC3)n2)ccc1O [Compound 164, 6-[(2-Methoxy-ethyl)-methyl-amino]-2-morpholin-4-yl-pyrimidine-4-carboxylic acid (3-diethylaminomethyl-4-hydroxy-phenyl)-amide]",≥ 1000 nM
5,"COCCN(C)c1cc(C(=O)Nc2ccc(NC(C)=O)cc2)nc(N2CCOCC2)n1 [Compound 165, 6-[(2-Methoxy-ethyl)-methyl-amino]-2-morpholin-4-yl-pyrimidine-4-carboxylic acid (4-acetylamino-phenyl)-amide]",≥ 1000 nM
6,"COCCN(C)c1cc(C(=O)Nc2cccc(N(C)C(C)=O)c2)nc(N2CCOCC2)n1 [Compound 166, 6-[(2-Methoxy-ethyl)-methyl-amino]-2-morpholin-4-yl-pyrimidine-4-carboxylic acid [3-(acetyl-methyl-amino)-phenyl]-amide]",≥ 1000 nM
7,"Cc1nccc(-c2cccc(NC(=O)c3cc(OCCN4CCOCC4)nc(N4CCOCC4)n3)c2)n1 [Compound 170, 2-Morpholin-4-yl-6-(2-morpholin-4-yl-ethoxy)-pyrimidine-4-carboxylic acid [3-(2-methyl-pyrimidin-4-yl)-phenyl]-amide]",≥ 1000 nM
8,"CCc1c(C)[nH]c2ccc(NC(=O)c3cc(N4CCC(O)CC4)nc(N4CCOCC4)n3)cc12 [Compound 177, 6-(4-Hydroxy-piperidin-1-yl)-2-morpholin-4-yl-pyrimidine-4-carboxylic acid (3-ethyl-2-methyl-1H-indol-5-yl)-amide]",< 1000 nM
9,"CCc1c[nH]c2ccc(NC(=O)c3cc(N4CCC(C)CC4)nc(N4CCOCC4)n3)cc12 [Compound 178, 6-(4-Methyl-piperidin-1-yl)-2-morpholin-4-yl-pyrimidine-4-carboxylic acid (3-ethyl-1H-indol-5-yl)-amide]",< 1000 nM
10,"CCc1c[nH]c2ccc(NC(=O)c3cc(N4CCCCC4)nc(N4CCOCC4)n3)cc12 [Compound 179, 2-Morpholin-4-yl-6-piperidin-1-yl-pyrimidine-4-carboxylic acid (3-ethyl-1H-indol-5-yl)-amide]",< 1000 nM
11,"CCc1c(C)[nH]c2ccc(NC(=O)c3cc(N4CCC5(CC4)OCCO5)nc(N4CCOCC4)n3)cc12 [Compound 180, 6-(1,4-Dioxa-8-aza-spiro[4.5]dec-8-yl)-2-morpholin-4-yl-pyrimidine-4-carboxylic acid (3-ethyl-2-methyl-1H-indol-5-yl)-amide]",< 1000 nM
12,"CCc1c[nH]c2ccc(NC(=O)c3cc(N4CCN(C(C)=O)CC4)cc(N4CCOCC4)n3)cc12 [Compound 181, 4-(4-Acetyl-piperazin-1-yl)-6-morpholin-4-yl-pyridine-2-carboxylic acid (3-ethyl-1H-indol-5-yl)-amide]",< 1000 nM
13,"Cc1[nH]c2ccc(NC(=O)c3cc(N4CCCCC4)cc(N4CCOCC4)n3)cc2c1C [Compound 182, 6′-Morpholin-4-yl-3,4,5,6-tetrahydro-2H-[1,4′]bipyridinyl-2′-carboxylic acid (2,3-dimethyl-1H-indol-5-yl)-amide]",< 1000 nM
14,"CCc1c(C)[nH]c2ccc(NC(=O)c3cc(N4CCC(C(N)=O)CC4)nc(N4CCOCC4)n3)cc12 [Compound 183, 6-(4-Carbamoyl-piperidin-1-yl)-2-morpholin-4-yl-pyrimidine-4-carboxylic acid (3-ethyl-2-methyl-1H-indol-5-yl)-amide]",< 1000 nM
15,"O=C(Nc1ccc2[nH]c3c(c2c1)CCCC3)c1cc(N2CCC(O)CC2)nc(N2CCOCC2)n1 [Compound 184, 6-(4-Hydroxy-piperidin-1-yl)-2-morpholin-4-yl-pyrimidine-4-carboxylic acid (6,7,8,9-tetrahydro-5H-carbazol-3-yl)-amide]",< 1000 nM
16,"O=C(Nc1ccc2[nH]c3c(c2c1)CCCC3)c1cc(N2CCC(O)CC2)cc(N2CCOCC2)n1 [Compound 185, 4-Hydroxy-6′-morpholin-4-yl-3,4,5,6-tetrahydro-2H-[1,4′]bipyridinyl-2′-carboxylic acid (6,7,8,9-tetrahydro-5H-carbazol-3-yl)-amide; compound with methanesulfonic acid]",< 1000 nM
17,"Cc1c[nH]c2ccc(NC(=O)c3cc(N4CCC(O)CC4)nc(N4CCOCC4)n3)cc12 [Compound 187, 6-(4-Hydroxy-piperidin-1-yl)-2-morpholin-4-yl-pyrimidine-4-carboxylic acid (3-methyl-1H-indol-5-yl)-amide]",< 1000 nM
18,"Cc1[nH]c2ccc(NC(=O)c3cc(N(C)CCO)nc(N4CCOCC4)n3)cc2c1C [Compound 189, N-(2,3-dimethyl-1H-indol-5-yl)-6-((2-hydroxyethyl)(methyl)amino)-2-morpholinopyrimidine-4-carboxamide]",< 1000 nM
19,"O=C(Nc1ccc2[nH]c(C(F)(F)F)nc2c1)c1cc(NCCN2CCOCC2)nc(N2CCOCC2)n1 [Compound 190, 2-morpholino-6-(2-morpholinoethylamino)-N-(2-(trifluoromethyl)-1H-benzo[d]imidazol-5-yl)pyrimidine-4-carboxamide]",≥ 1000 nM
20,"O=C(Nc1ccc(C(F)(F)F)cc1)c1cc(NCCN2CCOCC2)nc(N2CCOCC2)n1 [Compound 191, 2-morpholino-6-(2-morpholinoethylamino)-N-(4-(trifluoromethyl)phenyl)pyrimidine-4-carboxamide]",≥ 1000 nM

# Further lines, results first:
row,IC50,SMILES
1,< 1000 nM,"COCCN(C)c1cc(N2CCOCC2)cc(C(=O)Nc2ccc3[nH]c(C)c(C)c3c2)n1 [Compound 156, 6-[(2-Methoxy-ethyl)-methyl-amino]-4-morpholin-4-yl-pyridine-2-carboxylic acid (2,3-dimethyl-1H-indol-5-yl)-amide]"
2,< 1000 nM,"COCCN(C)c1cc(C(=O)Nc2ccc3[nH]c(C)c(C)c3c2)nc(N2CCOCC2)c1 [Compound 158, 4-[(2-Methoxy-ethyl)-methyl-amino]-6-morpholin-4-yl-pyridine-2-carboxylic acid (2,3-dimethyl-1H-indol-5-yl)-amide]"
3,< 1000 nM,"COCCN(C)c1cc(C(=O)Nc2cccc(N(C)C)c2)nc(N2CCOCC2)c1 [Compound 159, 4-[(2-Methoxy-ethyl)-methyl-amino]-6-morpholin-4-yl-pyridine-2-carboxylic acid (3-dimethylamino-phenyl)-amide]"
4,< 1000 nM,"CONc1cc(C(=O)Nc2cccc(N(C)C)c2)nc(N2CCOCC2)c1 [Compound 160, 4-Methoxyamino-6-morpholin-4-yl-pyridine-2-carboxylic acid (3-dimethylamino-phenyl)-amide]"
5,< 1000 nM,"CONc1cc(C(=O)Nc2ccc3[nH]c(C)c(C)c3c2)nc(N2CCOCC2)c1 [Compound 161, 4-Methoxyamino-6-morpholin-4-yl-pyridine-2-carboxylic acid (2,3-dimethyl-1H-indol-5-yl)-amide]"
6,< 1000 nM,"Cc1[nH]c2ccc(NC(=O)c3cccc(N4CCOCC4)n3)cc2c1C [Compound 168, 6-Morpholin-4-yl-pyridine-2-carboxylic acid (2,3-dimethyl-1H-indol-5-yl)-amide]"
7,< 1000 nM,"CC(=O)N1CCN(c2cc(C(=O)Nc3ccc4[nH]c(C)c(C)c4c3)nc(N3CCOCC3)c2)CC1 [Compound 169, 4-(4-Acetyl-piperazin-1-yl)-6-morpholin-4-yl-pyridine-2-carboxylic acid (2,3-dimethyl-1H-indol-5-yl)-amide]"
8,< 1000 nM,"Cc1[nH]c2ccc(NC(=O)c3cc(N4CCC(O)CC4)cc(N4CCOCC4)n3)cc2c1C [Compound 171, 4-Hydroxy-6′-morpholin-4-yl-3,4,5,6-tetrahydro-2H-[1,4′]bipyridinyl-2′-carboxylic acid (2,3-dimethyl-1H-indol-5-yl)-amide]"
9,< 1000 nM,"Cc1[nH]c2ccc(NC(=O)c3cc(N4CCC5(CC4)OCCO5)nc(N4CCOCC4)n3)cc2c1C [Compound 172, 6-(1,4-Dioxa-8-aza-spiro[4.5]dec-8-yl)-2-morpholin-4-yl-pyrimidine-4-carboxylic acid (2,3-dimethyl-1H-indol-5-yl)-amide]"
10,< 1000 nM,"Cc1[nH]c2ccc(NC(=O)c3cc(N4CCC(O)CC4)nc(N4CCOCC4)n3)cc2c1C [Compound 173, 6-(4-Hydroxy-piperidin-1-yl)-2-morpholin-4-yl-pyrimidine-4-carboxylic acid (2,3-dimethyl-1H-indol-5-yl)-amide]"
11,< 1000 nM,"CCc1c[nH]c2ccc(NC(=O)c3cc(N4CCC(O)CC4)cc(N4CCOCC4)n3)cc12 [Compound 174, 4-Hydroxy-6′-morpholin-4-yl-3,4,5,6-tetrahydro-2H-[1,4′]bipyridinyl-2′-carboxylic acid (3-ethyl-1H-indol-5-yl)-amide]"
12,< 1000 nM,"CCc1c[nH]c2ccc(NC(=O)c3cc(N4CCC5(CC4)OCCO5)nc(N4CCOCC4)n3)cc12 [Compound 175, 6-(1,4-Dioxa-8-aza-spiro[4.5]dec-8-yl)-2-morpholin-4-yl-pyrimidine-4-carboxylic acid (3-ethyl-1H-indol-5-yl)-amide]"
13,< 1000 nM,"CCOC(=O)C1CCN(c2cc(C(=O)Nc3ccc4[nH]c(C)c(C)c4c3)nc(N3CCOCC3)c2)CC1 [Compound 176, 2′-(2,3-Dimethyl-1H-indol-5-ylcarbamoyl)-6′-morpholin-4-yl-3,4,5,6-tetrahydro-2H-[1,4′]bipyridinyl-4-carboxylic acid ethyl ester]"
